# Assays:
# [1] = target: cathepsin D (Homo sapiens, UniProt P07339); experiment: Inhibition of cathepsin D catalytic activity (Ki); format: biochemical; details: pH 4.0, 37° C., read-out: CDK
# Experimental: A substrate peptide NH3-ELDLAVEFWHDR-CO2 (SEQ ID NO.:1) (used for inhibition assay of memapsin 2, memapsin 1, and cathepsin D) was dissolved at 2 mg/ml in DMSO and diluted 1:100 in 0.1 M sodium acetate, pH 4.0 just prior to assay. Inhibitor dissolved in DMSO was diluted into 0.1 M sodium acetate, pH 4.0 (1:100 dilution). A […] aliquot of the inhibitor solution in pH 4 buffer was combined with […] of 0.1 M sodium acetate containing 100-200 nM of memapsin 1, memapsin 2, or cathepsin D. Following a pre-incubation at 37° C., the proteolytic assay was initated by addition of […] of the substrate diluted into pH 4 buffer, and incubation continued at 37° C. Aliquots were removed at time intervals, and combined with an equal volume of MALDI-TOF matrix (α-hydroxycinnamic acid in acetone, 20 mg/ml) and immediately spotted in duplicate onto a stainless-steel MALDI sample plate. MALDI-TOF mass spectrometry was performed on a PE Biosystems Voyager DE instrument at the Molecular Biology Resource Center on campus. The instrument was operated at 25,000 accelerating volts in positive mode with a 150 ns delay. Ions with a mass-to-charge ratio (m/z) were detected in the range of 650-2000 atomic mass units. Data were analyzed by the Voyager Data Explorer module to obtain ion intensity data for mass species of substrates and corresponding products in a given mixture. Relative product formation was calculated as the ratio of signal intensity of the product to the sum of signal intensities of both product and the corresponding substrate. Relative product formed per unit time was obtained from non-linear regression analysis of the data representing the initial 15% formation of product using the model: 1−e^−kT, where k was the relative hydrolytic rate constant and T was time in seconds. Alternatively, relative hydrolytic rates were determined using a fluorogenic cleavage assay (Ermolieff, J. et al., Biochemistry, 39: 12450-12456 (2000)). Initial rates from either method were expressed relative to uninhibited controls and the inhibition constant Ki was determined by a non-linear fit to a tight-binding model of competitive inhibition (Bieth, J., Bayer-Symposium V: Proteinase Inhibitors, pp 463-469, Spinger-Varlag, Berlin (1994)). Results are shown in Table 1 above (M2K, CDK, and M1K columns represent, respectively, the K1 values obtained for memapsin 2, cathepsin D and memapsin 1).
# [2] = target: memapsin 2 (Homo sapiens, UniProt P56817); experiment: Inhibition of memapsin 2 catalytic activity (Ki); format: biochemical; details: memapsin 2, pH 4, 37° C.; read-out: M2K
# memapsin 2, sequence (P56817 46-501): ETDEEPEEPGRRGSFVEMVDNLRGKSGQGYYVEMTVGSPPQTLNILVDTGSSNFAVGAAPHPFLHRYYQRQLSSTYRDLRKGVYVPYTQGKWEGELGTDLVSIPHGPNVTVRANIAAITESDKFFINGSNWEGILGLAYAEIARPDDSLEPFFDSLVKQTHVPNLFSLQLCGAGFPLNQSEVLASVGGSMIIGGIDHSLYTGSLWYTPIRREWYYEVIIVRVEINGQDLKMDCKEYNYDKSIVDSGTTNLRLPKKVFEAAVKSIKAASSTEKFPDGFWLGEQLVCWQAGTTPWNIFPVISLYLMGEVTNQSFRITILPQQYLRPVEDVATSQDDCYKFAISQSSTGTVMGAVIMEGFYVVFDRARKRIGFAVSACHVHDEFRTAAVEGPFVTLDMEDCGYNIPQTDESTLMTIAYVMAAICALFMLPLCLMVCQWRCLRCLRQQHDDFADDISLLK
# Procedure, shortened: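 Run at 37 °C and pH 4: compound and enzyme pre-incubated 20 min before FS-2 fluorogenic substrate started hydrolysis,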
# [3] = test system: Aβ production in Chinese hamster ovary cells that over-express human APP695 with the London and Swedish mutations; experiment: Cellular Aβ IC50 determination (Aβ40 sandwich ELISA); details: Cricetulus griseus, CHO, 24 h, read-out: Cell, Aβ40, CHO cells over-expressing human APP695 (London and Swedish mutations), 24 h
# cathepsin D, sequence (P07339 65-412, species assumed): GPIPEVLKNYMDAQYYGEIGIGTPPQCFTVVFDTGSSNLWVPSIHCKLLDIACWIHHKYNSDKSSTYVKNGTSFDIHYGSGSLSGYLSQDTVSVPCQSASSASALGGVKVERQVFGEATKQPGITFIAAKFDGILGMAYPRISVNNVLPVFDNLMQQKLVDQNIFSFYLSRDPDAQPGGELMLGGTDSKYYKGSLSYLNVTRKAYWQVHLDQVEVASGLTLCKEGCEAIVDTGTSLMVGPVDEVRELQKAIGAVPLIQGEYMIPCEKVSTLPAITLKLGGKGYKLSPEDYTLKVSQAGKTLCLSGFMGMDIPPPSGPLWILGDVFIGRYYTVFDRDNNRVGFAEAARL
SMILES,Ki [1],Ki [2],IC50 [3]
CC(NC(=O)c1cc(C(=O)NC(Cc2ccccc2)C(O)CNCCN2CCOCC2)cc(N(C)S(C)(=O)=O)c1)c1ccccc1 (stereo not drawn) [N1-(3-hydroxy-4-(2-morpholinoethylamino)-1-phenylbutan-2-yl)-5-(N-methylmethylsulfonamido)-N3-(1-phenylethyl)isophthalamide],> 501 nM,301 to 500 nM,1000 to 5000 nM
Cc1cncc(CNCC(O)C(Cc2ccccc2)NC(=O)c2cccc(C(=O)N(C)Cc3nc(C)cs3)c2)c1 (stereo not drawn) [N1-(3-hydroxy-4-((5-methylpyridin-3-yl)methylamino)-1-phenylbutan-2-yl)-N3-methyl-N3-((4-methylthiazol-2-yl)methyl)isophthalamide],< 300 nM,< 300 nM,< 1000 nM
COc1cccc(CCNCC(O)C(Cc2ccccc2)NC(=O)c2cccc(C(=O)N(C)Cc3nc(C)cs3)c2)c1 (stereo not drawn) [N1-(3-hydroxy-4-(3-methoxyphenethylamino)-1-phenylbutan-2-yl)-N3-methyl-N3-((4-methylthiazol-2-yl)methyl)isophthalamide],301 to 500 nM,> 501 nM,> 5000 nM
CC(NC(=O)c1cc(C(=O)NC(Cc2ccccc2)C(O)CNCc2cnc3ccccc3c2)cc(N(C)S(C)(=O)=O)c1)c1ccccc1 (stereo not drawn) [N1-(3-hydroxy-1-phenyl-4-(quinolin-3-ylmethylamino)butan-2-yl)-5-(N-methylmethylsulfonamido)-N3-(1-phenylethyl)isophthalamide],< 300 nM,< 300 nM,< 1000 nM
CC(NC(=O)c1cc(C(=O)NC(Cc2ccccc2)C(O)CNCCN2CCCCC2)cc(N(C)S(C)(=O)=O)c1)c1ccccc1 (stereo not drawn) [N1-(3-hydroxy-1-phenyl-4-(2-(piperidin-1-yl)ethylamino)butan-2-yl)-5-(N-methylmethylsulfonamido)-N3-(1-phenylethyl)isophthalamide],> 501 nM,> 501 nM,> 5000 nM
CC(NC(=O)c1cc(C(=O)NC(Cc2ccccc2)C(O)CNCc2cccc(OC(F)F)c2)cc(N(C)S(C)(=O)=O)c1)c1ccccc1 (stereo not drawn) [N1-(4-(3-(difluoromethoxy)benzylamino)-3-hydroxy-1-phenylbutan-2-yl)-5-(N-methylmethylsulfonamido)-N3-(1-phenylethyl)isophthalamide],< 300 nM,< 300 nM,< 1000 nM
COc1cccc(F)c1CNCC(O)C(Cc1ccccc1)NC(=O)c1cc(C(=O)NC(C)c2ccccc2)cc(N(C)S(C)(=O)=O)c1 (stereo not drawn) [N1-(4-(2-fluoro-6-methoxybenzylamino)-3-hydroxy-1-phenylbutan-2-yl)-5-(N-methylmethylsulfonamido)-N3-(1-phenylethyl)isophthalamide],< 300 nM,< 300 nM,< 1000 nM
Cc1csc(CN(C)C(=O)c2cccc(C(=O)NC(Cc3ccccc3)C(O)CNCc3cccc(CF)c3)c2)n1 (stereo not drawn) [N1-(4-(3-(fluoromethyl)benzylamino)-3-hydroxy-1-phenylbutan-2-yl)-N3-methyl-N3-((4-methylthiazol-2-yl)methyl)isophthalamide],< 300 nM,< 300 nM,< 1000 nM
Cc1csc(CN(C)C(=O)c2cccc(C(=O)NC(Cc3ccccc3)C(O)CNCc3cccc(C(C)C)c3)c2)n1 (stereo not drawn) [N1-(3-hydroxy-4-(3-isopropylbenzylamino)-1-phenylbutan-2-yl)-N3-methyl-N3-((4-methylthiazol-2-yl)methyl)isophthalamide],< 300 nM,< 300 nM,< 1000 nM

# More lines, now with the values ahead:
Ki [1],Ki [2],IC50 [3],SMILES
< 300 nM,< 300 nM,1000 to 5000 nM,CC(NC(=O)c1cc(C(=O)NC(Cc2ccccc2)C(O)CNCc2nc3ccccc3[nH]2)cc(N(C)S(C)(=O)=O)c1)c1ccccc1 (stereo not drawn) [N1-(4-((1H-benzo[d]imidazol-2-yl)methylamino)-3-hydroxy-1-phenylbutan-2-yl)-5-(N-methylmethylsulfonamido)-N3-(1-phenylethyl)isophthalamide]
< 300 nM,< 300 nM,1000 to 5000 nM,COc1ccccc1CCNCC(O)C(Cc1ccccc1)NC(=O)c1cc(C(=O)NC(C)c2ccccc2)cc(N(C)S(C)(=O)=O)c1 (stereo not drawn) [N1-(3-hydroxy-4-(2-methoxyphenethylamino)-1-phenylbutan-2-yl)-5-(N-methylmethylsulfonamido)-N3-(1-phenylethyl)isophthalamide]
< 300 nM,301 to 500 nM,< 1000 nM,"COc1cccc(CNCC(O)C(Cc2ccccc2)NC(=O)c2cc(C(=O)NC(C)c3ccccc3)c(C)cc2C)c1 (stereo not drawn) [N1-(3-hydroxy-4-(3-methoxybenzylamino)-1-phenylbutan-2-yl)-4,6-dimethyl-N3-(1-phenylethyl)isophthalamide]"
< 300 nM,< 300 nM,< 1000 nM,CC(C)c1cccc(CNCC(O)C(Cc2ccccc2)NC(=O)c2cc(C(=O)NC(C)c3ccccc3)cc(N(C)S(C)(=O)=O)c2)c1 (stereo not drawn) [N1-(3-hydroxy-4-(3-isopropylbenzylamino)-1-phenylbutan-2-yl)-5-(N-methylmethylsulfonamido)-N3-(1-phenylethyl)isophthalamide]
> 501 nM,> 501 nM,> 5000 nM,CC(NC(=O)c1cc(C(=O)NC(Cc2ccccc2)C(O)CNCCN2CCCC2)cc(N(C)S(C)(=O)=O)c1)c1ccccc1 (stereo not drawn) [N1-(3-hydroxy-1-phenyl-4-(2-(pyrrolidin-1-yl)ethylamino)butan-2-yl)-5-(N-methylmethylsulfonamido)-N3-(1-phenylethyl)isophthalamide]
< 300 nM,< 300 nM,< 1000 nM,COc1cccc(CNCC(O)C(Cc2ccccc2)NC(=O)c2cc(C(=O)NC(C)c3ccccc3)cc(N(C)S(C)(=O)=O)c2)c1F (stereo not drawn) [N1-(4-(2-fluoro-3-methoxybenzylamino)-3-hydroxy-1-phenylbutan-2-yl)-5-(N-methylmethylsulfonamido)-N3-(1-phenylethyl)isophthalamide]
< 300 nM,< 300 nM,< 1000 nM,CCc1cccc(CNCC(O)C(Cc2ccccc2)NC(=O)c2cc(C(=O)NC(C)c3ccccc3)cc(N(C)S(C)(=O)=O)c2)c1 (stereo not drawn) [N1-(4-(3-ethylbenzylamino)-3-hydroxy-1-phenylbutan-2-yl)-5-(N-methylmethylsulfonamido)-N3-(1-phenylethyl)isophthalamide]
> 501 nM,< 300 nM,< 1000 nM,CC(NC(=O)c1cc(C(=O)NC(Cc2ccccc2)C(O)CNCc2cnccn2)cc(N(C)S(C)(=O)=O)c1)c1ccccc1 (stereo not drawn) [N1-(3-hydroxy-1-phenyl-4-(pyrazin-2-ylmethylamino)butan-2-yl)-5-(N-methylmethylsulfonamido)-N3-(1-phenylethyl)isophthalamide]
> 501 nM,< 300 nM,> 5000 nM,Cc1cc(CNCC(O)C(Cc2ccccc2)NC(=O)c2cccc(C(=O)N(C)Cc3nc(C)cs3)c2)on1 (stereo not drawn) [N1-(3-hydroxy-4-((3-methylisoxazol-5-yl)methylamino)-1-phenylbutan-2-yl)-N3-methyl-N3-((4-methylthiazol-2-yl)methyl)isophthalamide]
< 300 nM,< 300 nM,< 1000 nM,CC(NCC(O)C(Cc1ccccc1)NC(=O)c1cc(C(=O)NC(C)c2ccccc2)cc(N(C)S(C)(=O)=O)c1)c1cccnc1 (stereo not drawn) [N1-(3-hydroxy-1-phenyl-4-(1-(pyridin-3-yl)ethylamino)butan-2-yl)-5-(N-methylmethylsulfonamido)-N3-(1-phenylethyl)isophthalamide]
> 501 nM,< 300 nM,< 1000 nM,COc1cccc(CNCC(O)C(Cc2ccccc2)NC(=O)c2cc(C(=O)NC(C)c3nc(CO)co3)cc(N(C)S(C)(=O)=O)c2)c1 (stereo not drawn) [N1-(3-hydroxy-4-(3-methoxybenzylamino)-1-phenylbutan-2-yl)-N3-(1-(4-(hydroxymethyl)oxazol-2-yl)ethyl)-5-(N-methylmethylsulfonamido)isophthalamide]
